From PMC7101356, “Cross-site and cross-platform variability of automated patch clamp assessments of drug effects on human cardiac currents in recombinant cells” (Scientific Reports, 2020)

Key:
[1] = target: hCav1.2 (Homo sapiens, UniProt Q13936); experiment: Automated patch clamp, hCav1.2 current block
Protocol: Peak current was measured during the step to 0 mV. Leak current was measured after applying a saturating concentration of a blocker such as cadmium (200 µM) at the end of each experiment to completely block hCav1.2 current.
Concentration-response relationships for each test article were independently investigated, i.e., each cell received only one test article, typically evaluating multiple concentrations in a cumulative fashion (lowest to highest concentrations). However, some platforms tested only one concentration per well. Each concentration response was based on a minimum of four concentrations, with a minimum of three wells used for each concentration. In cases of high variability, more cells per concentration were recorded. Prior to drug addition, cells received an addition of vehicle to measure non-test article-related effects such as addition artifacts. At the end of the experiment, a supramaximal concentration of a known inhibitory reference compound was applied to assess leak current and appropriate responsiveness of the test system. While it was recommended that a separate group of cells (n ≥ 3) be recorded for each experimental day to determine the baseline response to vehicle and to address day-to-day variability, this was not verified.
These criteria were applied to all APC platforms.
(§1) The steady state current at each concentration was used to determine the concentration-response relationships. Mean concentration-response data were fitted to a standard sigmoidal four-parameter logistic equation (GraphPad Prism 7; GraphPad Inc., La Jolla, CA) of the form: Y=Bottom+(Top−Bottom)/(1+10^∧(LogIC50−X)∗HillSlope) where Y is the current inhibition (in % of pre-drug control), X is the logarithm of drug concentration, and IC50 is the drug concentration producing half-maximal current inhibition. Curve fitting was performed using the following constraints: Top = 100%, Bottom = 0%, Hill Slope <2. No curve fitting was performed in cases with an obvious lack of a concentration-dependent current inhibition and/or small effect size (approximately ≤20%).

[2] = target: T1, late hNav1.5 (Homo sapiens, UniProt Q14524); experiment: Automated patch clamp, late hNav1.5 current block (ATX-II activated); type: cell-based
T1 construct: expressed in transfected cells; host or cells: HEK293 or CHO, depending on site
Protocol: However, all external solutions contained 30 nM ATX-II in order to activate late current. Late current was measured at its maximum during the repolarizing ramp.
(§2) Concentration-response relationships for each test article were independently investigated, i.e., each cell received only one test article, typically evaluating multiple concentrations in a cumulative fashion (lowest to highest concentrations). However, some platforms tested only one concentration per well. Each concentration response was based on a minimum of four concentrations, with a minimum of three wells used for each concentration. In cases of high variability, more cells per concentration were recorded. Prior to drug addition, cells received an addition of vehicle to measure non-test article-related effects such as addition artifacts. At the end of the experiment, a supramaximal concentration of a known inhibitory reference compound was applied to assess leak current and appropriate responsiveness of the test system.
as §1

[3] = target: T2, peak hNav1.5 (Homo sapiens, UniProt Q14524); experiment: Automated patch clamp, peak hNav1.5 current block; type: cell-based
T2 construct: expressed in transfected cells; host or cells: HEK293 or CHO, depending on site
Protocol: Peak current was measured during the depolarizing step to −15 mV. Leak current was measured after applying a saturating concentration of a blocker such as lidocaine (2 mM) at the end of each experiment to completely block hNav1.5 current.
as §2, §1

[4] = target: T3, hERG (Homo sapiens, UniProt Q12809); experiment: in vitro; conditions: hERG K+ current inhibition, Mean
[5] = based on CiPA evaluations; cited from earlier work
[6] = target: T3, hERG; set-up: expressed in transfected cells; host or cells: HEK293 or CHO, depending on site (site s06, Milnes protocol: HEK293); conditions: physiologic temperatures; cited from earlier work
[7] = site_platform s06_p4, 1.00E-09 mol/L
[8] = site_platform s06_p4, 3.00E-07 mol/L
[9] = site_platform s07_p6, 1.00E-09 mol/L
[10] = site_platform s07_p6, 3.00E-07 mol/L
[11] = site_platform s13_p2, 1.00E-09 mol/L
[12] = site_platform s14_p1, 3.00E-07 mol/L

T3 sequence (Q12809 whole entry): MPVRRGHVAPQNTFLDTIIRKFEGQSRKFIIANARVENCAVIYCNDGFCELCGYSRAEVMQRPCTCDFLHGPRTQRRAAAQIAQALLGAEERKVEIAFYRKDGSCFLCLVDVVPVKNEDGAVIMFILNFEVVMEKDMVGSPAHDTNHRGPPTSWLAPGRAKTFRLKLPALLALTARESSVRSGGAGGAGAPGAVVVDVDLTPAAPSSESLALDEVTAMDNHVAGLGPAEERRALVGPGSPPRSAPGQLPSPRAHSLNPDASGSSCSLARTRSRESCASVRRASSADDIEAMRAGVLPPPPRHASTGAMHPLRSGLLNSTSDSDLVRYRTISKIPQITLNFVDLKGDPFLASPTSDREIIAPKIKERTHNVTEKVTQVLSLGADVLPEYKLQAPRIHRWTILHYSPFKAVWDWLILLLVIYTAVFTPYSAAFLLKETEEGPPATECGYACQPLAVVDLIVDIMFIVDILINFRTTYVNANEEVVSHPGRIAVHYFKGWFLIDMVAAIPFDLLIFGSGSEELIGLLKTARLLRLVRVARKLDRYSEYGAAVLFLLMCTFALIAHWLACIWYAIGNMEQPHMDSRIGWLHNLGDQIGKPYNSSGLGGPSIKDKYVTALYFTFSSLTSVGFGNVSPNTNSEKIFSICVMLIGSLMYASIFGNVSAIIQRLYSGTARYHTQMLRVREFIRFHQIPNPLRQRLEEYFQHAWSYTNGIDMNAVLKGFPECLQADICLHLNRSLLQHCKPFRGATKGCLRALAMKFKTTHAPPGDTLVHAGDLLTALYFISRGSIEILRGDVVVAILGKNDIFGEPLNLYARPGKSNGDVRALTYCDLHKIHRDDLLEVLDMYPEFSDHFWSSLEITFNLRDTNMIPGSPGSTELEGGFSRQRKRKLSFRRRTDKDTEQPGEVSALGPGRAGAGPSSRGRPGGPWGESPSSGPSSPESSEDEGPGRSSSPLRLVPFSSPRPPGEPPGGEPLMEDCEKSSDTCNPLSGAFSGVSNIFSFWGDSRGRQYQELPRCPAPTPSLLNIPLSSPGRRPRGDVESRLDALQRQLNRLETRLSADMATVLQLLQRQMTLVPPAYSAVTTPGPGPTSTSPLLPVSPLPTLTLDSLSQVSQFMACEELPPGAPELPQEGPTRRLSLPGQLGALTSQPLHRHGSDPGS
T1 sequence (Q14524 whole entry): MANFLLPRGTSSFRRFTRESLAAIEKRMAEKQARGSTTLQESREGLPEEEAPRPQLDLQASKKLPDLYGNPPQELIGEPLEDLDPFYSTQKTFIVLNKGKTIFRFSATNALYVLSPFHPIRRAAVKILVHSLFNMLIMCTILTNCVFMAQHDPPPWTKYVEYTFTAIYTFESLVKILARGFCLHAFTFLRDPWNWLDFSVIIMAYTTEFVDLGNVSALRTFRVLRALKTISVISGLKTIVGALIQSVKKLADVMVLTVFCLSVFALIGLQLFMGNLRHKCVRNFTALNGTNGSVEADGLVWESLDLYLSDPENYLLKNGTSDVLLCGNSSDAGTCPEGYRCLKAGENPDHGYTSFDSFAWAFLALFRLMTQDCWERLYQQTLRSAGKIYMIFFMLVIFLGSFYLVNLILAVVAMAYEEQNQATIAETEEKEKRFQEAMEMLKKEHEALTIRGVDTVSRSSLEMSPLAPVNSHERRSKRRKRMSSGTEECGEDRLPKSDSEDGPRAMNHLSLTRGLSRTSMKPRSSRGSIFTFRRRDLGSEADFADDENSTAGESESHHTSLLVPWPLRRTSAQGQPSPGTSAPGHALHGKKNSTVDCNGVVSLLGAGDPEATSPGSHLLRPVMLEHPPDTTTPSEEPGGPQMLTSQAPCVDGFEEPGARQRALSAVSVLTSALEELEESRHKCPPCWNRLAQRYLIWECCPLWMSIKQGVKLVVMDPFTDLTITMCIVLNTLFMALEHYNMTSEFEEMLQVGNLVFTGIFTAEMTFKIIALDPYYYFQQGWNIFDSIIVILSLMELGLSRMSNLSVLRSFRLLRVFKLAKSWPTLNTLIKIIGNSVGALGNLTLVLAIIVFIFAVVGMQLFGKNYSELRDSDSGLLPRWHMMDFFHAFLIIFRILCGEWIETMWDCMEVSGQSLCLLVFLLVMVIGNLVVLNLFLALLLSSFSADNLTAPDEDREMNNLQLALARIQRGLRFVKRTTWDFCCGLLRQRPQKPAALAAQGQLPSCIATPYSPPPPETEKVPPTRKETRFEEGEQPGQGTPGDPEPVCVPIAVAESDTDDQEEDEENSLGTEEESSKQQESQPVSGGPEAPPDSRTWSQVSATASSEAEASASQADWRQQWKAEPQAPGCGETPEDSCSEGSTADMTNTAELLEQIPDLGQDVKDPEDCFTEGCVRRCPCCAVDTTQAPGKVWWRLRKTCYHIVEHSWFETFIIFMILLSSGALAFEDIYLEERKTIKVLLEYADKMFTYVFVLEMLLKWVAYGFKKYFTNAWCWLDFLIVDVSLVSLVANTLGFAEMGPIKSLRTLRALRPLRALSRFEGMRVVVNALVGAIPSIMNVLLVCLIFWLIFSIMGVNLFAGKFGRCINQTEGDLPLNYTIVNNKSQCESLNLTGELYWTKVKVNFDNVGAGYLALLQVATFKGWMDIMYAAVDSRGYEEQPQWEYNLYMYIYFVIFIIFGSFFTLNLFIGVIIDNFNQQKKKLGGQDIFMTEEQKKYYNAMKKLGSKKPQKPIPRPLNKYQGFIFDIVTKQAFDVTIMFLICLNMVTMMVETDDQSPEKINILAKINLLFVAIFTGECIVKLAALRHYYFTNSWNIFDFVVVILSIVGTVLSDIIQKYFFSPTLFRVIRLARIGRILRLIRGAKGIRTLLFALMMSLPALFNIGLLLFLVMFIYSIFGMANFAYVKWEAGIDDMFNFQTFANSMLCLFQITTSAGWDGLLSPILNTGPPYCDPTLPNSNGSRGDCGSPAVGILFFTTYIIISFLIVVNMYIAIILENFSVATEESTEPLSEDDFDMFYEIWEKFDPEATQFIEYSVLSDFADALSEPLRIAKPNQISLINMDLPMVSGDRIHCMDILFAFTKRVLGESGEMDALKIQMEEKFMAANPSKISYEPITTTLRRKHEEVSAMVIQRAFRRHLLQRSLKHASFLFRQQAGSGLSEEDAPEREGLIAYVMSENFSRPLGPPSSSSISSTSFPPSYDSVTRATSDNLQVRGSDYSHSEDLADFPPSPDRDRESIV

With `COc1cc(N)c(Cl)cc1C(=O)NC1CCN(CCCOc2ccc(F)cc2)CC1OC` (stereo not drawn) [cis, cisapride] as the compound, how does the IC50 ([1]; log IC50, half-maximal inhibitory concentration, site s16_p3) read?
The IC50 was 447 nM.

What about the “log IC50, half-maximal inhibitory concentration” value ([1]; site s01_p1) of the same compound?
Its value is “no inh”.

And the “Peak hCav1.2 Ca2+ current inhibition, Mean” value ([1]; site s01_p1, 1.00E-09 mol/L)?
Its value is 7.4%.

What about the “Peak hCav1.2 Ca2+ current inhibition, Mean” value ([1]; site s01_p1, 3.00E-07 mol/L) of the same compound?
Its value is 8.1%.

And the “log IC50, half-maximal inhibitory concentration” value ([1]; site s02_p2, corrected for rundown)?
Its value is “no inh”.

What about the “Peak hCav1.2 Ca2+ current inhibition, Mean” value ([1]; site s02_p2, corrected for rundown, 1.00E-09 mol/L) of the same compound?
Its value is -5.7%.

And the “Peak hCav1.2 Ca2+ current inhibition, Mean” value ([1]; site s02_p2, corrected for rundown, 3.00E-07 mol/L)?
The value was 14.5%.

What about the “log IC50, half-maximal inhibitory concentration” value ([1]; site s06_p4) of the same compound?
Its value is “no inh”.

And the “Peak hCav1.2 Ca2+ current inhibition, Mean” value ([1]; site s06_p4, 1.00E-09 mol/L)?
Its value is -8.1%.

What about the “Peak hCav1.2 Ca2+ current inhibition, Mean” value ([1]; site s06_p4, 3.00E-07 mol/L) of the same compound?
The value was -6.0%.

And the “log IC50, half-maximal inhibitory concentration” value ([1]; site s11_p1)?
Its value is “no inh”.

What about the “Peak hCav1.2 Ca2+ current inhibition, Mean” value ([1]; site s11_p1, 1.00E-09 mol/L) of the same compound?
The value was 7.8%.

And the “Peak hCav1.2 Ca2+ current inhibition, Mean” value ([1]; site s11_p1, 3.00E-07 mol/L)?
Its value is 10.4%.

And the “log IC50, half-maximal inhibitory concentration” value ([1]; site s14_p1)?
Its value is “no inh”.

And the “Peak hCav1.2 Ca2+ current inhibition, Mean” value ([1]; site s14_p1, 1.00E-09 mol/L)?
The value was -10.3%.

And the “Peak hCav1.2 Ca2+ current inhibition, Mean” value ([1]; site s14_p1, 3.00E-07 mol/L)?
Its value is -19.9%.

What about the “nH, Hill slope” value ([1]; site s16_p3) of the same compound?
Its value is 0.24.

What about the “Peak hCav1.2 Ca2+ current inhibition, Mean” value ([1]; site s16_p3, 1.00E-09 mol/L) of the same compound?
Its value is 20.1%.

And the “Peak hCav1.2 Ca2+ current inhibition, Mean” value ([1]; site s16_p3, 3.00E-07 mol/L)?
Its value is 49.1%.

And the “log IC50, half-maximal inhibitory concentration” value ([1]; site s18_p1)?
Its value is “no inh”.

And the “Peak hCav1.2 Ca2+ current inhibition, Mean” value ([1]; site s18_p1, 1.00E-09 mol/L)?
The value was 2.8%.

What about the “Peak hCav1.2 Ca2+ current inhibition, Mean” value ([1]; site s18_p1, 3.00E-07 mol/L) of the same compound?
Its value is -16.5%.

What about the “log IC50, late hNav1.5 inhibition” value ([2]; site_platform s06_p4) of the same compound?
Its value is “no inh”.

And the “Late hNav1.5 Na+ current inhibition, Mean” value [2, 7]?
The value was -0.7%.

What about the “Late hNav1.5 Na+ current inhibition, Mean” value [2, 8] of the same compound?
Its value is 31.8%.

What about the “log IC50, late hNav1.5 inhibition” value ([2]; site_platform s07_p6) of the same compound?
The value was “no inh”.

What about the “Late hNav1.5 Na+ current inhibition, Mean” value [2, 9] of the same compound?
Its value is 4.3%.

And the “Late hNav1.5 Na+ current inhibition, Mean” value [2, 10]?
The value was -17.0%.

And the “log IC50, late hNav1.5 inhibition” value ([2]; site_platform s13_p2)?
The value was “no inh”.

What about the “Late hNav1.5 Na+ current inhibition, Mean” value [2, 11] of the same compound?
Its value is -16.7%.

What about the “Late hNav1.5 Na+ current inhibition, Mean” value ([2]; site_platform s13_p2, 3.00E-07 mol/L) of the same compound?
The value was 7.2%.

And the “log IC50, late hNav1.5 inhibition” value ([2]; site_platform s14_p1)?
The value was “no inh”.

And the “Late hNav1.5 Na+ current inhibition, Mean” value ([2]; site_platform s14_p1, 1.00E-09 mol/L)?
The value was -6.9%.

And the “Late hNav1.5 Na+ current inhibition, Mean” value [2, 12]?
Its value is -6.3%.

And the “peak hNav1.5 Na+ current inhibition (result in words)” value ([3]; no inhibition = no obvious concentration-dependent current block and/or no curve fitting performed, all sites)?
Its value is “no inhibition”.

What about the “log IC50, peak hNav1.5 Na+ current inhibition” value ([3]; site_platform s01_p1) of the same compound?
Its value is “no inh”.

And the “Peak hNav1.5 Na+ current inhibition, Mean” value ([3]; site_platform s01_p1, 1.00E-09 mol/L)?
Its value is 55.1%.

And the “Peak hNav1.5 Na+ current inhibition, Mean” value ([3]; site_platform s01_p1, 3.00E-07 mol/L)?
Its value is 41.7%.

What about the “log IC50, peak hNav1.5 Na+ current inhibition” value ([3]; site_platform s02_p2) of the same compound?
The value was “no inh”.

And the “Peak hNav1.5 Na+ current inhibition, Mean” value ([3]; site_platform s02_p2, 1.00E-09 mol/L)?
Its value is 0.1%.

And the “Peak hNav1.5 Na+ current inhibition, Mean” value ([3]; site_platform s02_p2, 3.00E-07 mol/L)?
Its value is 4.3%.

And the “log IC50, peak hNav1.5 Na+ current inhibition” value ([3]; site_platform s04_p3)?
Its value is “no inh”.

And the “Peak hNav1.5 Na+ current inhibition, Mean” value ([3]; site_platform s04_p3, 1.00E-09 mol/L)?
Its value is 1.4%.

What about the “Peak hNav1.5 Na+ current inhibition, Mean” value ([3]; site_platform s04_p3, 3.00E-07 mol/L) of the same compound?
Its value is 9.8%.

And the “log IC50, peak hNav1.5 Na+ current inhibition” value ([3]; site_platform s06_p4)?
The value was “no inh”.

What about the “Peak hNav1.5 Na+ current inhibition, Mean” value [3, 7] of the same compound?
The value was -1.5%.

What about the “Peak hNav1.5 Na+ current inhibition, Mean” value [3, 8] of the same compound?
Its value is 6.3%.

And the “log IC50, peak hNav1.5 Na+ current inhibition” value ([3]; site_platform s07_p6)?
Its value is “no inh”.

What about the “Peak hNav1.5 Na+ current inhibition, Mean” value [3, 9] of the same compound?
Its value is 3.2%.

And the “Peak hNav1.5 Na+ current inhibition, Mean” value [3, 10]?
Its value is 12.5%.

What about the “log IC50, peak hNav1.5 inhibition” value ([3]; site_platform s10_p3) of the same compound?
The value was “no inh”.

And the “Peak hNav1.5 Na+ current inhibition, Mean” value ([3]; site_platform s10_p3, 1.00E-09 mol/L)?
Its value is -1.1%.

And the “Peak hNav1.5 Na+ current inhibition, Mean” value ([3]; site_platform s10_p3, 3.00E-07 mol/L)?
The value was 11.3%.

And the “log IC50, peak hNav1.5 inhibition” value ([3]; site_platform s11_p1)?
The value was “no inh”.

And the “Peak hNav1.5 Na+ current inhibition, Mean” value ([3]; site_platform s11_p1, 1.00E-09 mol/L)?
Its value is 8.6%.

What about the “Peak hNav1.5 Na+ current inhibition, Mean” value ([3]; site_platform s11_p1, 3.00E-07 mol/L) of the same compound?
The value was 10.0%.

What about the “log IC50, peak hNav1.5 inhibition” value ([3]; site_platform s12_p2) of the same compound?
Its value is “no inh”.

And the “Peak hNav1.5 Na+ current inhibition, Mean” value ([3]; site_platform s12_p2, 1.00E-09 mol/L)?
The value was -0.2%.

What about the “Peak hNav1.5 Na+ current inhibition, Mean” value ([3]; site_platform s12_p2, 3.00E-07 mol/L) of the same compound?
The value was 6.8%.

And the “log IC50, peak hNav1.5 inhibition” value ([3]; site_platform s13_p2)?
Its value is “no inh”.

What about the “Peak hNav1.5 Na+ current inhibition, Mean” value [3, 11] of the same compound?
Its value is -1.8%.

And the “log IC50, peak hNav1.5 inhibition” value ([3]; site_platform s14_p1)?
The value was “no inh”.

And the “Peak hNav1.5 Na+ current inhibition, Mean” value [3, 12]?
Its value is -0.4%.

And the “log IC50, peak hNav1.5 inhibition” value ([3]; site_platform s15_p1)?
The value was “no inh”.

And the “Peak hNav1.5 Na+ current inhibition, Mean” value ([3]; site_platform s15_p1, 1.00E-09 mol/L)?
Its value is 10.3%.

What about the “Peak hNav1.5 Na+ current inhibition, Mean” value ([3]; site_platform s15_p1, 3.00E-07 mol/L) of the same compound?
Its value is 21.4%.

And the “log IC50, peak hNav1.5 inhibition” value ([3]; site_platform s16_p3)?
Its value is “no inh”.

And the “Peak hNav1.5 Na+ current inhibition, Mean” value ([3]; site_platform s16_p3, 1.00E-09 mol/L)?
Its value is 3.1%.

And the “Peak hNav1.5 Na+ current inhibition, Mean” value ([3]; site_platform s16_p3, 3.00E-07 mol/L)?
Its value is 13.4%.

What about the “log IC50, peak hNav1.5 inhibition” value ([3]; site_platform s17_p1) of the same compound?
Its value is “no inh”.

And the “Peak hNav1.5 Na+ current inhibition, Mean” value ([3]; site_platform s17_p1, 3.00E-07 mol/L)?
Its value is 1.3%.

What about the “log IC50, peak hNav1.5 inhibition” value ([3]; site_platform s18_p1) of the same compound?
Its value is “no inh”.

What about the “Peak hNav1.5 Na+ current inhibition, Mean” value ([3]; site_platform s18_p1, 1.00E-09 mol/L) of the same compound?
Its value is -22.5%.

What about the “Peak hNav1.5 Na+ current inhibition, Mean” value ([3]; site_platform s18_p1, 3.00E-07 mol/L) of the same compound?
Its value is 1.0%.

And the “log IC50, peak hNav1.5 inhibition” value ([3]; site_platform s19_p3)?
Its value is “no inh”.

What about the “Peak hNav1.5 Na+ current inhibition, Mean” value ([3]; site_platform s19_p3, 1.00E-09 mol/L) of the same compound?
The value was 6.7%.

And the “Peak hNav1.5 Na+ current inhibition, Mean” value ([3]; site_platform s19_p3, 3.00E-07 mol/L)?
Its value is 20.0%.

What about the inhibition at 4 min, 1e-09 mol/L [4] of the same compound?
Its inhibition at 4 min, 1e-09 mol/L is 7.2%.

And the inhibition at 4 min, 3e-07 mol/L [4]?
Its inhibition at 4 min, 3e-07 mol/L is 68.5%.

What about the inhibition at 7 min, 1e-09 mol/L [4] of the same compound?
The inhibition at 7 min, 1e-09 mol/L was 12%.

And the “TdP Risk Category” value [5]?
Its value is “Intermediate”.

With `O=c1[nH]c2ccccc2n1C1CCN(CCCC(c2ccc(F)cc2)c2ccc(F)cc2)CC1` [pimozide] as the compound, how does the “difference of hERG IC50 between two manual patch clamp laboratories” value [6] read?
The value was 44 fold.
